Literature values in patent US20200289412A1, “BIOENHANCED SPIRULINA LOZENGE FORMULATION” (priority 2019, published 2020).

What was measured:
tumor cell = conditions: time-dependent; not directly killing cancer cells
[1] = system: human immunodeficiency virus-1 virus (HIV-1)

| Substance | tumor cell growth (tumor cell) | in vitro replication (Herpes simplex type I) | in vitro replication [1] | in vitro replication (influenza A virus) | in vitro replication (human cytomegalovirus) | in vitro replication (mumps virus) | in vitro replication (measles virus) |
| --- | --- | --- | --- | --- | --- | --- | --- |
| Spirulina polysaccharide [PSP] | inhibiting tumor cell growth | – | – | – | – | – | – |
| calcium spirulan [Ca-Sp] | – | inhibits the in vitro replication | inhibits the in vitro replication | inhibits the in vitro replication | inhibits the in vitro replication | inhibits the in vitro replication | inhibits the in vitro replication |
